Columns and labels:
[1] = Antibiotic susceptibility (MIC), quality control strain; details: E. coli ATCC 25922, 18 h ± 2 h, aerobic, +35±2° C.
[2] = Antibiotic susceptibility (MIC), broth microdilution / agar dilution, CLSI M07; details: for Minimum Inhibitory Concentration (MIC): VTT-E-193585, 48 h ± 1 h, aerobic, +35±2° C., cation-adjusted Mueller Hinton Broth, fosfomycin by agar dilution; for MIC values for VTT-E-193585 compared to E. coli ATCC 25922: comparison in words

CC1(C)S[C@@H]2[C@H](NC(=O)[C@H](N)c3ccccc3)C(=O)N2[C@H]1C(=O)O [Ampicillin]
Minimum Inhibitory Concentration (MIC) [1]: 8 µg/mL | Minimum Inhibitory Concentration (MIC) [2]: 16 µg/mL | MIC values for VTT-E-193585 compared to E. coli ATCC 25922 [2]: higher

C[C@@H]1O[C@@H]1P(=O)(O)O [Fosfomycin]
Minimum Inhibitory Concentration (MIC) [1]: 0.5 µg/mL | Minimum Inhibitory Concentration (MIC) [2]: 32 µg/mL | MIC values for VTT-E-193585 compared to E. coli ATCC 25922 [2]: higher

[H]/N=C(/N)N[C@H]1[C@H](O)[C@@H](O)[C@H](O[C@@H]2O[C@@H](C)[C@](O)(C=O)[C@H]2O[C@@H]2O[C@@H](CO)[C@H](O)[C@@H](O)[C@@H]2NC)[C@@H](N/C(N)=N\[H])[C@@H]1O [Streptomycin]
Minimum Inhibitory Concentration (MIC) [1]: 4 µg/mL | Minimum Inhibitory Concentration (MIC) [2]: 0.5 µg/mL | MIC values for VTT-E-193585 compared to E. coli ATCC 25922 [2]: lower or comparable

Colistin
Minimum Inhibitory Concentration (MIC) [1]: 2 µg/mL | Minimum Inhibitory Concentration (MIC) [2]: 4 µg/mL | MIC values for VTT-E-193585 compared to E. coli ATCC 25922 [2]: higher

Gentamicin
Minimum Inhibitory Concentration (MIC) [1]: 0.5 µg/mL | Minimum Inhibitory Concentration (MIC) [2]: 0.5 µg/mL | MIC values for VTT-E-193585 compared to E. coli ATCC 25922 [2]: lower or comparable

— patent US20240254435A1, “VARIANT BACTERIAL STRAINS AND PROCESSES FOR PROTEIN OR BIOMASS PRODUCTION” (Solar Foods Oy, priority 2021, published 2024)
